pIC50: −log10 of the molar value.
Legend:
PDGF receptor = PDGF receptor autophosphorylation in rat aorta smooth muscle cells; type: cell-based; details: PDGF-BB 30 ng/mL for 5 minutes after 2 hours with compound; read-out: Inhibition of PDGF-Stimulated Receptor Auto Phosphorylation in Rat Aortic Smooth Muscle Cells (IC50)
Method: Rat aorta smooth muscle cells (RASMC) were isolated from the thoracic aorta of rats and explanted according to the method of Ross, J. Cell. Biol., 30:172-186 (1971). Cells were grown in Dulbecco's modified Eagle's medium (DMEM, Gibco) containing 10% fetal calf serum (FBS, Hyclone, Logan, Utah), 1% glutamine (Gibco) and 1% penicillin/streptomycin (Gibco). Cells were identified as smooth muscle cells by their "hill and valley" growth pattern and by fluorescent staining with a monoclonal antibody specific for SMC ∝-actin (Sigma). RASMC were used between passages 5 and 20 for all experiments. Test compounds were prepared in dimethylsulfoxide (DMSO) in order to achieve consistency in the vehicle and to ensure compound solubility. Appropriate DMSO controls were simultaneously evaluated with the test compounds.
RASMC were grown to confluency in 100 mm dishes. Growth medium was removed and replaced with serum-free medium and cells were incubated at 37°C for an additional 24 hours. Test compounds were then added directly to the medium and cells incubated for an additional 2 hours. After 2 hours, PDGF-BB was added at a final concentration of 30 ng/mL for 5 minutes at 37°C to stimulated autophosphorylation of the PDGF receptor. Following growth factor treatment, the medium was removed, and cells were washed with cold phosphate-buffered saline and immediately lysed with 1 mL of lysis buffer (50 mM HEPES[pH 7.5], 150 mM NaCl, 10% glycerol, 1% Triton X-100, 1 mM EDTA, 1 mMEGTA, 50 mM NaF, 1 mM sodium orthovanadate, 30 mM p-nitrophenyl phosphate, 10 mM sodium pyrophosphate, 1 mM phenylmethyl sulfonyl fluoride, 10 µg/mL aprotinin, and 10 µg/mL leupeptin). Lysates were centrifuged at 10,000 × g for 10 minutes. […] Following the incubation, protein-A-sepharose beads were added for 2 hours with continuous mixing, and immune complexes bound to the beads washed four times with 1 mL lysis wash buffer. Immune complexes were solubilized in 30 µL of Laemmli sample buffer and electrophoresed in 4-20% SDS polyacrylamide gels. Following electrophoresis, separated proteins were transferred to nitrocellulose and immunoblotted with anti-phosphotyrosine antiserum. […] IC50 values were generated from the densitometric data.

[1] = biological target: T1, Human EGF receptor tyrosine kinase (Homo sapiens, UniProt P00533); assay: EGF receptor tyrosine kinase enzyme assay (substrate peptide phosphorylation); type: biochemical; details: read-out: EGF-FL IC50
T1 construct: Human EGF receptor tyrosine kinase was isolated from A431 epidermoid carcinoma cells; endogenous in cells; host or cells: A431 epidermoid carcinoma cells

[2] = biological target: T2, human FGF-1 (flg) receptor tyrosine kinase (Homo sapiens, UniProt P11362); assay: FGF receptor tyrosine kinase assay (32P incorporation into glutamate-tyrosine co-polymer); type: biochemical; details: read-out: FGFr-TK IC50
T2 construct: amplify a fragment of DNA that codes for the intracellular tyrosine kinase domain; made in house; host or cells: SF9 insect cells (baculovirus)
How it was run: (§1)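 32P transfer from γ32P-ATP (50 µM ATP) to poly(Glu,Tyr) 4:1 was measured over 10 min at 25°C and counted after TCA precipitation onto filters, minus the no-enzyme background. Enzyme was baculovirus/SF9 lysate of the kinase domain, preincubated 10 min with inhibitor in Hepes pH 7.0, MnCl2, vanadate.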

C-src kinase = biological target: T3, C-src kinase (Homo sapiens, UniProt P12931); assay: C-src kinase assay (poly GluTyr substrate); type: biochemical; details: read-out: C-src TK IC50
T3 construct: made in house; host or cells: baculovirus infected insect cells

[3] = biological target: T4, mouse PDGF-β receptor tyrosine kinase (Mus musculus, UniProt P05622); assay: PDGF receptor tyrosine kinase assay (32P incorporation into glutamate-tyrosine co-polymer); type: biochemical; details: read-out: PDGFr-TK IC50
T4 construct: amplify a fragment of DNA that codes for the intracellular tyrosine kinase domain; made in house; host or cells: SF9 insect cells (baculovirus)
How it was run: as §1

SW-620 = assay: Soft agar colony formation, human colon adenocarcinoma cells; type: cell-based; details: SW-620, 336 h, colony formation in 0.3% soft agar, generally 2 weeks, read-out: Inhibition of Human Colon Adenocarcinoma IC50, SW-620
Method: (§2) Three such human cell lines were identified as HCT-8, SW-620, and HT-29. In a typical assay, the cells are suspended in 0.3% soft agar containing an invention compound at various concentration levels, and are plated into six-well plates, each plate containing a 1% agar plug. The cell plates are incubated at 37°C in a humidified carbon dioxide (5%) incubator, generally for 2 weeks. At the end of the incubation period, colonies of cells are detected by staining the wells with 1 mg/mL of p-iodonitrotetrazolium violet. The cells are counted on an optical colony counter. […] TABLE III. Inhibition of Human Colon Adenocarcinoma IC50 (µM)

HT-29 = assay: as above; type: cell-based; details: HT-29, 336 h, colony formation in 0.3% soft agar, generally 2 weeks, read-out: Inhibition of Human Colon Adenocarcinoma IC50, HT-29
Method: as §2

HCT-8 = assay: as above; type: cell-based; details: HCT-8, 336 h, colony formation in 0.3% soft agar, generally 2 weeks, read-out: Inhibition of Human Colon Adenocarcinoma IC50, HCT-8
Method: as §2

transplanted tumors = assay: Transplanted tumor assay; type: in vivo; details: F1 hybrid mice; compound generally by infusion by tail tether
Method: F1 hybrid mice were used in the assay. The mice receive ascites fluid or dilutions of tumor brei on Day 0. A sample of the inocula is incubated in thioglycolate media as a check for gross contamination of the tumor material. After all test animals are inoculated with tumors, they are randomized for the assay. Control animals receive vehicle, while treated animals receive an invention compound dissolved in the vehicle, generally by infusion by tail tether. All animals are monitored daily for acute toxicity and other clinical signs. Survival is checked daily for the control group and treated group. The assay generally is continued for 60 days, at which time all surviving animals are euthanized.

T4 sequence (P05622 599-961 limits assumed): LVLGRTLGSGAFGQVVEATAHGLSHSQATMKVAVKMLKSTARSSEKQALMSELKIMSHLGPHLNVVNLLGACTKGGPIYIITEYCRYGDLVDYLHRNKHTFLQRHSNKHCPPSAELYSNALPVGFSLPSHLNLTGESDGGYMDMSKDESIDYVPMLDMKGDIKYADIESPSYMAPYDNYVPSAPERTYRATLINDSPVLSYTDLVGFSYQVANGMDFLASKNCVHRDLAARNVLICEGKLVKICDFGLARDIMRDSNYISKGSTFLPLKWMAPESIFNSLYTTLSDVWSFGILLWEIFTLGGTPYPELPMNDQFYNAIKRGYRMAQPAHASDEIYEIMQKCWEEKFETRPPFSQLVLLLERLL
T3 sequence (P12931 whole entry): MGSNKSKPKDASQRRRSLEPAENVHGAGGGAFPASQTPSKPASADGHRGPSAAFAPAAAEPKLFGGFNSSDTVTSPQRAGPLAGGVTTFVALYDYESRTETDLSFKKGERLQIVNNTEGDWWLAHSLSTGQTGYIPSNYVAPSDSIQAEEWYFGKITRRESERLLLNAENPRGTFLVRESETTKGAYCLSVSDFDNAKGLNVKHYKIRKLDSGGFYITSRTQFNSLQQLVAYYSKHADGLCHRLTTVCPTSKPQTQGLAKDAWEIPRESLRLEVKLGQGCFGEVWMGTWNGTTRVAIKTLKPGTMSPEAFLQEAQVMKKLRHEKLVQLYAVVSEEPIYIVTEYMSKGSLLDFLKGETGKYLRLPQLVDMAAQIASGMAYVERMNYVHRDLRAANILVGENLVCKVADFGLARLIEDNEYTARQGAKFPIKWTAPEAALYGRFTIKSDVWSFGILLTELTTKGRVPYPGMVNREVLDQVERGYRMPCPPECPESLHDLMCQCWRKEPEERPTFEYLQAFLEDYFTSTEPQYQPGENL
T1 sequence (P00533 25-1210): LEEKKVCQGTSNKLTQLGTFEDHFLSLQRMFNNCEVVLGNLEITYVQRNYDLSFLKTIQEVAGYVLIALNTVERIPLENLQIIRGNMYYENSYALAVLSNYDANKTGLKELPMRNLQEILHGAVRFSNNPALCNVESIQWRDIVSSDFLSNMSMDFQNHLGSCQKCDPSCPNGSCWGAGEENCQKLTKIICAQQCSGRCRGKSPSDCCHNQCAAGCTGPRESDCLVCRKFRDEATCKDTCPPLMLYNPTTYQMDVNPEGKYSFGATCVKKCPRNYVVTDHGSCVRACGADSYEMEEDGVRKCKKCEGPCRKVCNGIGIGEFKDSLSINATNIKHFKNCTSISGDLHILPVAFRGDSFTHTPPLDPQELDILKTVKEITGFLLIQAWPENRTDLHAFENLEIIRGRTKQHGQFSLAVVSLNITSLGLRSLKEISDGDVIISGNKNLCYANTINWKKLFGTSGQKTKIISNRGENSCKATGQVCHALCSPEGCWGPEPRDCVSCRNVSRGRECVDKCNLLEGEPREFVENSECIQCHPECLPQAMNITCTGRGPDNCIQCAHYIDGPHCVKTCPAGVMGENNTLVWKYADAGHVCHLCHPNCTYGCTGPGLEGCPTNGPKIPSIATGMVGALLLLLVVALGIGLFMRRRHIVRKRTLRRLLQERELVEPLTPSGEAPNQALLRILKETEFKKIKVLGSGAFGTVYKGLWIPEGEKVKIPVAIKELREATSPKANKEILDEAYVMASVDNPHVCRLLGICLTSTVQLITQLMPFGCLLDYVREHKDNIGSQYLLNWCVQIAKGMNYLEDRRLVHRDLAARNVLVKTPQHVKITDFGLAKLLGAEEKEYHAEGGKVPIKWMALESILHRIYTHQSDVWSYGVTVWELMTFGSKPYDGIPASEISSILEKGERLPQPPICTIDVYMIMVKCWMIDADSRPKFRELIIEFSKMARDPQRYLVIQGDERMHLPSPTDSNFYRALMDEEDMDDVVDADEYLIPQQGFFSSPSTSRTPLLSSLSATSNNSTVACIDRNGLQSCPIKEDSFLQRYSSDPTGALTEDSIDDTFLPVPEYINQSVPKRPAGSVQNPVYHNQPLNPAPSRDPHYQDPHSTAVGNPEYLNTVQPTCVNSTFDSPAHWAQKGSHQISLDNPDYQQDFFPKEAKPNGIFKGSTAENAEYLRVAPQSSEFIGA
T2 sequence (P11362 478-767 limits assumed): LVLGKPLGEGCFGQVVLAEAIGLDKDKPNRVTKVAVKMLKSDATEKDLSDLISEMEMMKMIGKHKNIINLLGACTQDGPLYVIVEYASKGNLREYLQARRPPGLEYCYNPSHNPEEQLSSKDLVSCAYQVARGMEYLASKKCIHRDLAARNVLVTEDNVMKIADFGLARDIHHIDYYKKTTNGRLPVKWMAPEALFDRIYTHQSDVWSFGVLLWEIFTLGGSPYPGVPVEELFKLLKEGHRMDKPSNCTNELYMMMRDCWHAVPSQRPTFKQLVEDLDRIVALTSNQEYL

pIC50 (PDGF receptor) | pIC50 [1] | pIC50 [2] | pIC50 (C-src kinase) | pIC50 [3] | pIC50 (SW-620) | pIC50 (HT-29) | pIC50 (HCT-8) | Structure (SMILES) | life span of animals infected with transplanted tumors (transplanted tumors)
5.03 | 5.25 | – | – | – | – | – | – | Cn1c(=O)c(-c2c(Cl)cccc2Cl)cc2cnc(N)nc21 [Example 12, 2-Amino-6-(2,6-dichlorophenyl)-8-methyl-pyrido[2,3-d]-pyrimidin-7(8H)-one] | –
7.22 | – | 5.66 | 7.23 | 5.74 | 6.92 | 6.37 | 6.96 | Cn1c(=O)c(-c2c(Cl)cccc2Cl)cc2cnc(Nc3cccc(Br)c3)nc21 [Example 55, 2-(3-Bromophenylamino)-6-(2,6-dichlorophenyl)-8-methyl-8H-pyrido[2,3-d]pyrimidin-7-one] | –
7.89 | 6.92 | 6.80 | 7.64 | 7.15 | 6.89 | 6.42 | 6.77 | Cn1c(=O)c(-c2c(Cl)cccc2Cl)cc2cnc(Nc3ccncc3)nc21 [Example 58, 6-(2,6-Dichlorophenyl)-8-methyl-2-(pyridin-4-ylamino)-8H-pyrido[2,3-d]pyrimidin-7-one] | –
– | – | – | – | – | – | – | – | CCN(CC)CCOc1ccc(Nc2ncc3cc(-c4c(Cl)cccc4Cl)c(=O)n(C)c3n2)cc1 [Example 80, 6-(2,6-Dichlorophenyl)-2-[4-(2-diethylaminoethoxy)-phenylamino]-8-methyl-8H-pyrido[2,3-d]pyrimidin-7-one] | increased the life span

Reference: patent EP0823908B1, “PYRIDO[2,3-d]PYRIMIDINES FOR INHIBITING PROTEIN TYROSINE KINASE MEDIATED [sequence] PROLIFERATION” (Warner-Lambert Company LLC, priority 1995, dated 1996)
